US20040014791A1, “Thiazolidinedione derivative and its use as antidiabetic” (priority 2000, published 2004)

Experiments:
[1] = Solid state stability of the drug substance (storage, HPLC assay for final content and degradation products); assay type: physicochemical; settings: 1 month, product of Example 3
Description: The solid state stability of the drug substance was determined by storing approximately 1.0 g of the material in a glass bottle at a) 40° C./75% Relative Humidity (RH), open exposure, for 1 month and b) at 50° C., closed, foe 1 month. The material was assayed by HPLC for final content and degradation products in both cases.

[2] = Flow properties: Hausner Ratio (bulk density vs tapped bulk density); assay type: physicochemical; settings: ratio between the bulk density and the tapped bulk density; product of Example 3
Description: When used herein in respect of certain compounds the term “good flow properties” is suitably characterised by the said compound having a Hausner ratio of less than or equal to 1.5, especially of less than or equal to 1.25.
Flow Properties of the Fumarate
The ratio between the bulk density and the tapped bulk density (Hausner Ratio) of the Fumarate was determined using standard methods (“Pharmaceutics—The Science of Dosage Form Design”, editor M. Aulton, 1988, published by: Churchill Livingstone).

[3] = 40° C./75% Relative Humidity (RH), open exposure

With CN(CCOc1ccc(CC2SC(=O)NC2=O)cc1)c1ccccn1.O=C(O)/C=C/C(=O)O (centres unmarked) [Fumarate, 5-[4-[2-(N-methyl-N-(2-pyridyl)amino)ethoxy]benzyl]thiazolidine-2,4-dione fumarate] the “Solid state stability: HPLC assay” value [1, 3] was 100 % initial, the “Solid state stability: degradation observed” value [1, 3] was “No significant degradation observed” and the “Solid state stability: HPLC assay” value ([1]; 50° C., closed) was 99 % initial. For the same molecule, the “Solid state stability: degradation observed” value ([1]; 50° C., closed) was “No significant degradation observed” and the “Hausner Ratio” value [2] was 1.0.
